# Results reported in patent publication US8969629B2, “Cyclic compound, production process thereof, radiation-sensitive composition and resist pattern formation method” (Mitsubishi Gas Chemical Company, Inc., priority 2009, dated 2015).
# Assay: Solubility test of compound in safe solvent
# Type: physicochemical
# Conditions: for dissolution amount in CHN: cyclohexanone (CHN); for dissolution amount in PGME: propylene glycol monomethyl ether (PGME)
# From the text: A: 5.0 wt %≦dissolution amount
# B: 3.0 wt %≦dissolution amount<5.0 wt %
# C: dissolution amount<3.0 wt %
SMILES,dissolution amount in CHN,dissolution amount in PGME
Oc1ccc(C2c3cc(c(OC4CCCCC4)cc3O)C(c3ccc(O)cc3)c3cc(c(O)cc3OC3CCCCC3)C(c3ccc(O)cc3)c3cc(c(OC4CCCCC4)cc3O)C(c3ccc(O)cc3)c3cc2c(O)cc3OC2CCCCC2)cc1 (centres unmarked) [CR-1A],A (5.0 wt %≦dissolution amount),A (5.0 wt %≦dissolution amount)
"COc1cc(O)c2cc1C(c1ccc(C)cc1C)c1cc(c(O)cc1OC)C(c1ccc(C)cc1C)c1cc(c(OC)cc1O)C(c1ccc(C)cc1C)c1cc(c(O)cc1OC)C2c1ccc(C)cc1C (centres unmarked) [CR-8A, reference compound]",C (dissolution amount<3.0 wt %),C (dissolution amount<3.0 wt %)
"CCOc1cc(O)c2cc1C(c1ccc(OC)cc1)c1cc(c(O)cc1OCC)C(c1ccc(OC)cc1)c1cc(c(OCC)cc1O)C(c1ccc(OC)cc1)c1cc(c(O)cc1OCC)C2c1ccc(OC)cc1 (centres unmarked) [CR-9A, reference compound]",C (dissolution amount<3.0 wt %),C (dissolution amount<3.0 wt %)

# Now from value to compound:
dissolution amount in CHN,dissolution amount in PGME,SMILES
A (5.0 wt %≦dissolution amount),A (5.0 wt %≦dissolution amount),Oc1ccc(C2c3cc(c(OC4CCCCC4)cc3O)C(c3ccc(O)c(O)c3)c3cc(c(O)cc3OC3CCCCC3)C(c3ccc(O)c(O)c3)c3cc(c(OC4CCCCC4)cc3O)C(c3ccc(O)c(O)c3)c3cc2c(O)cc3OC2CCCCC2)cc1O (centres unmarked) [CR-2A]
A (5.0 wt %≦dissolution amount),A (5.0 wt %≦dissolution amount),CC1CCC(Oc2cc(O)c3cc2C(c2ccc(O)cc2)c2cc(c(O)cc2OC2CCC(C)CC2)C(c2ccc(O)cc2)c2cc(c(OC4CCC(C)CC4)cc2O)C(c2ccc(O)cc2)c2cc(c(O)cc2OC2CCC(C)CC2)C3c2ccc(O)cc2)CC1 (centres unmarked) [CR-3A]
A (5.0 wt %≦dissolution amount),A (5.0 wt %≦dissolution amount),Cc1cc(C2c3cc(c(OC4CCC(C)CC4)cc3O)C(c3ccc(O)c(O)c3)c3cc(c(O)cc3OC3CCC(C)CC3)C(c3ccc(O)c(O)c3)c3cc(c(OC4CCC(C)CC4)cc3O)C(c3ccc(O)c(O)c3)c3cc2c(O)cc3OC2CCC(C)CC2)ccc1O (centres unmarked) [CR-4A]
A (5.0 wt %≦dissolution amount),A (5.0 wt %≦dissolution amount),CC1CC(Oc2cc(O)c3cc2C(c2ccc(O)c(O)c2)c2cc(c(O)cc2OC2CC(C)CC(C)(C)C2)C(c2ccc(O)c(O)c2)c2cc(c(OC4CC(C)CC(C)(C)C4)cc2O)C(c2ccc(O)c(O)c2)c2cc(c(O)cc2OC2CC(C)CC(C)(C)C2)C3c2ccc(O)c(O)c2)CC(C)(C)C1 (centres unmarked) [CR-7A]
